Data reported in patent US20140128272A1, “Method for Inducing Dormancy of Cancer Tissue-Derived Cell Mass and Method for Evaluating Treating Means with the Use of Cancer-Tissue-Derived Cell Mass” (Osaka Prefectural Hospital Organization, priority 2012, published 2014).

Legend:
[1] = tested on: cancer tissue-derived cell mass (sample C45, human colon cancer); assay: in vitro drug sensitivity test with cancer tissue-derived cell mass, normal versus dormant state; format: cell-based; conditions: day 7, 5-FU and oxaliplatin 0.01-10 μg/ml, SN38 0.001-1 ng/ml, FIG. 6; for response of cancer tissue-derived cell mass to drug concentration (relative increase rate of area, no drug = 1): dormant state (dormancy medium); for proliferation of cancer cells in the cancer tissue-derived cell mass (relative increase rate of area, no drug = 1): normal culture conditions (StemPro hESC SFM medium)
Protocol: Using SN38,5-FU, and oxaliplatin known as anti-cancer agents, a drug sensitivity test was performed with C45 sample of Example 2. The test was proceeded by culturing the C45 obtained in example 2, in 1 cc of a dormancy medium or StemPro hESC SFM (Gibco; A10007-01) medium. Further, as to each drug, 5-FU and oxaliplatin were applied at concentrations of 0.01 μg/ml, 0.1 μg/ml, 1 μg/ml, and 10 μg/ml, and SN38 was applied at concentrations of 0.001 ng/ml, 0.01 ng/ml, 0.1 ng/ml, and 1 ng/ml, and comparative evaluation of the culture state was performed on day 7 after each culture. An increase rate of the area of the cancer tissue-derived cell mass was relatively expressed when the increase rate of the area under culture with no drug application was expressed as 1.

[2] = tested on: cancer tissue-derived cell mass (sample C45, human colon cancer); assay: effect of growth factors on proliferation of cancer tissue-derived cell mass under 1% oxygen; format: cell-based; conditions: added to dormancy medium under hypoxic conditions (1% oxygen); heregulin 10 ng/ml, IGF 200 ng/ml, or both; FIG. 4
Protocol: The cancer tissue-derived cell mass obtained in Example 2 was purified as a composition and cultured in a dormancy medium (20 ml): DMEM/F12 with GlutaMAX (Invitrogen) 18.5 ml, 25% BSA (Invitrogen) 1.44 ml, and 2ME Stock […] in a 6 cm non-treated dish (EIKEN CHEMICAL: AG2000) in a personal gas incubator (APM-30D, ASTEC Co., Ltd.) or INVIVO2 400 (RUSKINN) for 15 days at 37° C. under the conditions of an oxygen concentration of 1%.

Question: What does the source list for `CCc1c2c(nc3ccc(O)cc13)-c1cc3c(c(=O)n1C2)COC(=O)[C@]3(O)CC` [SN38]?
Answer: response of cancer tissue-derived cell mass to drug concentration (relative increase rate of area, no drug = 1) [1]: did not respond to the concentration of drugs at all or responded little to it; proliferation of cancer cells in the cancer tissue-derived cell mass (relative increase rate of area, no drug = 1) [1]: suppressed

Question: How did the “response of cancer tissue-derived cell mass to drug concentration (relative increase rate of area, no drug = 1)” value [1] turn out when `O=C1[O][Pt]2([NH][C@@H]3CCCC[C@H]3[NH]2)[O]C1=O` [oxaliplatin] was run?
Answer: did not respond to the concentration of drugs at all or responded little to it

Question: What about the “proliferation of cancer cells in the cancer tissue-derived cell mass (relative increase rate of area, no drug = 1)” value [1] of the same molecule?
Answer: suppressed

Question: How did the “growth of the cancer tissue-derived cell mass” value [2] turn out when heregulin was run?
Answer: grew up rapidly

Question: For `O=c1[nH]cc(F)c(=O)[nH]1` [5-FU], which “response of cancer tissue-derived cell mass to drug concentration (relative increase rate of area, no drug = 1)” value [1] is on record?
Answer: did not respond to the concentration of drugs at all or responded little to it

Question: What about the “proliferation of cancer cells in the cancer tissue-derived cell mass (relative increase rate of area, no drug = 1)” value [1] of the same molecule?
Answer: suppressed

Question: Which “growth of the cancer tissue-derived cell mass” value [2] does the source give for insulin-like growth factor [IGF] here?
Answer: grew up rapidly
